Earlier results as cited in publication PMC5732038 (ACS chemical biology, 2017).

Test system: methicillin resistant Staphylococcus aureus (MRSA)
Details: several Gram-positive bacteria including MRSA

For Sublancin, the antimicrobial activity is given as “antimicrobial activity”.
